Results: PubChem BioAssay AID1963874 (Molecular Pharmacology Branch, DTP, NCI, 2024)

Test system: 253994-281-T-J1-PDC KRAS-mutant spheroids with HUVEC/MSC, viability
Assay: Anticancer human tumor 253994-281-T-J1-PDC patient-derived colorectal carcinoma cell line growth inhibition [KRAS2]
Conditions: for IC50: curve of first compound; for viability, T/C: stronger effect = lower value
Procedure, shortened: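 KRAS-mutant tumor cells were grown as spheroids with HUVEC endothelial cells and human MSCs as stroma. Targeted agents were tested alone and with KRAS pathway inhibitors. Doses started at or near clinical Cmax, or 10 microM, descending half-log.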

[1] = second compound 0.1 µM, first compound 0.0316 µM
[2] = second compound 0.1 µM, first compound 0.1 µM
[3] = second compound 0.1 µM, first compound 0.316 µM
[4] = second compound 0.1 µM, first compound 1 µM
[5] = second compound 0.1 µM, first compound 3.16 µM
[6] = second compound 0.1 µM, first compound 10 µM
[7] = second compound 0.316 µM, first compound 0.0316 µM
[8] = second compound 0.316 µM, first compound 0.1 µM
[9] = second compound 0.316 µM, first compound 0.316 µM
[10] = second compound 0.316 µM, first compound 1 µM
[11] = second compound 0.316 µM, first compound 3.16 µM
[12] = second compound 0.316 µM, first compound 10 µM
[13] = second compound 1 µM, first compound 0.0316 µM
[14] = second compound 1 µM, first compound 0.1 µM
[15] = second compound 1 µM, first compound 0.316 µM
[16] = second compound 1 µM, first compound 1 µM
[17] = second compound 1 µM, first compound 3.16 µM
[18] = second compound 1 µM, first compound 10 µM
[19] = second compound 3.16 µM, first compound 0.0316 µM
[20] = second compound 3.16 µM, first compound 0.1 µM
[21] = second compound 3.16 µM, first compound 0.316 µM
[22] = second compound 3.16 µM, first compound 1 µM
[23] = second compound 3.16 µM, first compound 3.16 µM
[24] = second compound 3.16 µM, first compound 10 µM
[25] = second compound 10 µM, first compound 0.0316 µM
[26] = second compound 10 µM, first compound 0.1 µM
[27] = second compound 10 µM, first compound 0.316 µM
[28] = second compound 10 µM, first compound 1 µM
[29] = second compound 10 µM, first compound 3.16 µM
[30] = second compound 10 µM, first compound 10 µM
[31] = second compound 0.1 µM, first compound 0.00316 µM
[32] = second compound 0.1 µM, first compound 0.01 µM
[33] = second compound 0.316 µM, first compound 0.00316 µM
[34] = second compound 0.316 µM, first compound 0.01 µM
[35] = second compound 1 µM, first compound 0.00316 µM
[36] = second compound 1 µM, first compound 0.01 µM
[37] = second compound 3.16 µM, first compound 0.00316 µM
[38] = second compound 3.16 µM, first compound 0.01 µM
[39] = second compound 10 µM, first compound 0.00316 µM
[40] = second compound 10 µM, first compound 0.01 µM
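Note: spheroids exposed to agents for seven days before readout.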
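Throughout, for viability, T/C: percent of DMSO vehicle control viability.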

Compound | IC50 (second compound 0.1 µM) | IC50 (second compound 0.316 µM) | IC50 (second compound 1 µM) | IC50 (second compound 3.16 µM) | IC50 (second compound 10 µM) | viability, T/C [1] | viability, T/C [2] | viability, T/C [3] | viability, T/C [4] | viability, T/C [7] | viability, T/C [8] | viability, T/C [9] | viability, T/C [10] | viability, T/C [13] | viability, T/C [14] | viability, T/C [15] | viability, T/C [19] | viability, T/C [20] | viability, T/C [25] | viability, T/C [26] | further results
CC(C)NCC(C(=O)N1CCN(c2ncnc3c2C(C)CC3O)CC1)c1ccc(Cl)cc1 (stereo not given) + CC1OCC2(CCN(c3cnc(Sc4ccnc(N)c4Cl)c(N)n3)CC2)C1N | > 10000 nM | > 10000 nM | > 10000 nM | > 10000 nM | < 31.6 nM | 107% | 101% | 99.8% | 90.7% | 95.1% | 91% | 86.4% | 84.7% | 84.7% | 77.9% | 72.9% | 57.8% | 59.5% | 36.3% | 41% | viability, T/C [5]: 85.2%; viability, T/C [6]: 85.8%; viability, T/C [11]: 101%; viability, T/C [12]: 84.3%; viability, T/C [16]: 83.5%; viability, T/C [17]: 83%; viability, T/C [18]: 93%; viability, T/C [21]: 63.9%; viability, T/C [22]: 70.6%; viability, T/C [23]: 77.7%; viability, T/C [24]: 84.3%; viability, T/C [27]: 41.1%; viability, T/C [28]: 51.9%; viability, T/C [29]: 58%; viability, T/C [30]: 55%
CC1(C)CCC(CN2CCN(c3ccc(C(=O)NS(=O)(=O)c4ccc(NCC5CCOCC5)c([N+](=O)[O-])c4)c(Oc4cnc5[nH]ccc5c4)c3)CC2)=C(c2ccc(Cl)cc2)C1 + CC1OCC2(CCN(c3cnc(Sc4ccnc(N)c4Cl)c(N)n3)CC2)C1N | > 10000 nM | > 10000 nM | > 10000 nM | 2820 nM | < 31.6 nM | 88.2% | 100% | 85.4% | 103% | 77% | 82.1% | 79.9% | 80.4% | 89.5% | 72.9% | 72.5% | 66.2% | 67.7% | 38.3% | 36.6% | viability, T/C [5]: 81.6%; viability, T/C [6]: 72.9%; viability, T/C [11]: 72%; viability, T/C [12]: 51.1%; viability, T/C [16]: 79.3%; viability, T/C [17]: 65.7%; viability, T/C [18]: 49.5%; viability, T/C [21]: 63.7%; viability, T/C [22]: 61%; viability, T/C [23]: 48.7%; viability, T/C [24]: 35%; viability, T/C [27]: 47.5%; viability, T/C [28]: 47.1%; viability, T/C [29]: 35%; viability, T/C [30]: 4.16%
CCN1CCN(Cc2ccc(Nc3ncc(F)c(-c4cc(F)c5nc(C)n(C(C)C)c5c4)n3)nc2)CC1 + CC1OCC2(CCN(c3cnc(Sc4ccnc(N)c4Cl)c(N)n3)CC2)C1N | 715 nM | 422 nM | 186 nM | 51 nM | 12.2 nM | 87.6% | 79.9% | 64.4% | 44.2% | 83.7% | 62.4% | 62.4% | 33% | 72.9% | 57.7% | 43.3% | 47.1% | 41.9% | 39.3% | 33% | viability, T/C [31]: 93.1%; viability, T/C [32]: 102%; viability, T/C [33]: 96%; viability, T/C [34]: 90.6%; viability, T/C [35]: 77.8%; viability, T/C [36]: 76%; viability, T/C [16]: 32.2%; viability, T/C [37]: 68.2%; viability, T/C [38]: 76.6%; viability, T/C [21]: 39%; viability, T/C [22]: 22.8%; viability, T/C [39]: 57%; viability, T/C [40]: 55.9%; viability, T/C [27]: 33%; viability, T/C [28]: 15%
Cn1ncnc1[C@H]1c2n[nH]c(=O)c3cc(F)cc(c23)N[C@@H]1c1ccc(F)cc1 + CC1OCC2(CCN(c3cnc(Sc4ccnc(N)c4Cl)c(N)n3)CC2)C1N | > 100 nM | > 100 nM | > 100 nM | > 100 nM | < 0.316 nM | 103% | 94.4% |  |  | 87.2% | 76.8% |  |  | 74.8% | 80.8% |  | 63.6% | 55.5% | 44.2% | 32.3% | viability, T/C (second compound 0.1 µM, first compound 0.000316 µM): 94.9%; viability, T/C (second compound 0.1 µM, first compound 0.001 µM): 94.9%; viability, T/C [31]: 99.9%; viability, T/C [32]: 109%; viability, T/C (second compound 0.316 µM, first compound 0.000316 µM): 95.5%; viability, T/C (second compound 0.316 µM, first compound 0.001 µM): 83.6%; viability, T/C [33]: 98.6%; viability, T/C [34]: 85.5%; viability, T/C (second compound 1 µM, first compound 0.000316 µM): 85.7%; viability, T/C (second compound 1 µM, first compound 0.001 µM): 86%; viability, T/C [35]: 93.2%; viability, T/C [36]: 73.1%; viability, T/C (second compound 3.16 µM, first compound 0.000316 µM): 67.1%; viability, T/C (second compound 3.16 µM, first compound 0.001 µM): 58.3%; viability, T/C [37]: 71.4%; viability, T/C [38]: 66%; viability, T/C (second compound 10 µM, first compound 0.000316 µM): 46.8%; viability, T/C (second compound 10 µM, first compound 0.001 µM): 47.1%; viability, T/C [39]: 33.4%; viability, T/C [40]: 40.1%
